Assay: xn = mol fraction of the nth substance listed

OCCO + O
Conditions | viscosity [mPa·s]
293.15 K, 100 kPa, x1 = 0.3 | 5.035
293.15 K, 101 kPa, x1 = 0.0744 | 1.724
293.15 K, 101 kPa, x1 = 0.1209 | 2.258
293.15 K, 101.3 kPa, x1 = 0.031 | 1.28
293.15 K, 101.3 kPa, x1 = 0.068 | 1.79
293.15 K, 101.3 kPa, x1 = 0.11 | 1.9
293.15 K, 101.3 kPa, x1 = 0.14 | 2.47
293.15 K, 101.3 kPa, x1 = 0.16 | 2.8
293.15 K, 101.3 kPa, x1 = 0.19 | 3.14
293.15 K, 101.3 kPa, x1 = 0.22 | 3.66
293.15 K, 101.3 kPa, x1 = 0.26 | 4.09
293.15 K, 101.3 kPa, x1 = 0.3 | 4.68
293.15 K, 101.3 kPa, x1 = 0.4 | 6.5
293.15 K, 101.3 kPa, x1 = 0.54 | 9.03
293.15 K, 101.3 kPa, x1 = 0.72 | 13.6
298.15 K, 101 kPa, x1 = 0.0414 | 1.22
298.15 K, 101 kPa, x1 = 0.118 | 1.97
298.15 K, 101 kPa, x1 = 0.1553 | 2.36
298.15 K, 101 kPa, x1 = 0.3385 | 4.73
298.15 K, 101 kPa, x1 = 0.3521 | 4.96
298.15 K, 101 kPa, x1 = 0.4133 | 5.94
298.15 K, 101 kPa, x1 = 0.5333 | 7.96
298.15 K, 101 kPa, x1 = 0.6376 | 9.9
298.15 K, 101 kPa, x1 = 0.7762 | 12.56
298.15 K, 101 kPa, x1 = 0.8769 | 14.49
298.15 K, 101 kPa, x1 = 0.907 | 15.05
298.15 K, 101 kPa, x2 = 0.0034 | 16.94
298.15 K, 101.33 kPa, x1 = 0.1753 | 2.58
298.15 K, 101.33 kPa, x1 = 0.3316 | 4.73
298.15 K, 101.33 kPa, x1 = 0.5615 | 8.36
303.15 K, 101.3 kPa, x1 = 0.031 | 0.92
303.15 K, 101.3 kPa, x1 = 0.068 | 1.27
303.15 K, 101.3 kPa, x1 = 0.11 | 1.43
303.15 K, 101.3 kPa, x1 = 0.14 | 1.87
303.15 K, 101.3 kPa, x1 = 0.16 | 2.09
303.15 K, 101.3 kPa, x1 = 0.19 | 2.34
303.15 K, 101.3 kPa, x1 = 0.22 | 2.7
303.15 K, 101.3 kPa, x1 = 0.26 | 2.99
303.15 K, 101.3 kPa, x1 = 0.3 | 3.38
303.15 K, 101.3 kPa, x1 = 0.4 | 4.59
303.15 K, 101.3 kPa, x1 = 0.54 | 6.29
303.15 K, 101.3 kPa, x1 = 0.72 | 9.22
303.15 K, 101.33 kPa, x1 = 0.0003 | 0.778
303.15 K, 101.33 kPa, x1 = 0.0009 | 0.781
303.15 K, 101.33 kPa, x1 = 0.0059 | 0.808
303.15 K, 101.33 kPa, x1 = 0.01 | 0.834
303.15 K, 101.33 kPa, x1 = 0.0136 | 0.856
303.15 K, 101.33 kPa, x1 = 0.0616 | 1.18
303.15 K, 101.33 kPa, x1 = 0.1054 | 1.529
303.15 K, 101.33 kPa, x1 = 0.1634 | 2.03
303.15 K, 101.33 kPa, x1 = 0.1935 | 2.348
303.15 K, 101.33 kPa, x1 = 0.2969 | 3.435
303.15 K, 101.33 kPa, x1 = 0.3955 | 4.638
303.15 K, 101.33 kPa, x1 = 0.4982 | 6
303.15 K, 101.33 kPa, x1 = 0.5873 | 7.264
303.15 K, 101.33 kPa, x1 = 0.6734 | 8.539
303.15 K, 101.33 kPa, x1 = 0.7944 | 10.39
303.15 K, 101.33 kPa, x1 = 0.8719 | 11.58
303.15 K, 101.33 kPa, x1 = 0.941 | 12.69
303.15 K, 101.33 kPa, x2 = 0.0134 | 13.35
308.15 K, 101.33 kPa, x1 = 0.0003 | 0.706
308.15 K, 101.33 kPa, x1 = 0.0009 | 0.709
308.15 K, 101.33 kPa, x1 = 0.0059 | 0.733
308.15 K, 101.33 kPa, x1 = 0.01 | 0.752
308.15 K, 101.33 kPa, x1 = 0.0136 | 0.774
308.15 K, 101.33 kPa, x1 = 0.0616 | 1.044
308.15 K, 101.33 kPa, x1 = 0.1054 | 1.326
308.15 K, 101.33 kPa, x1 = 0.1634 | 1.756
308.15 K, 101.33 kPa, x1 = 0.1935 | 2.016
308.15 K, 101.33 kPa, x1 = 0.2969 | 2.919
308.15 K, 101.33 kPa, x1 = 0.3955 | 3.905
308.15 K, 101.33 kPa, x1 = 0.4982 | 5.004
308.15 K, 101.33 kPa, x1 = 0.5873 | 6.04
308.15 K, 101.33 kPa, x1 = 0.6734 | 7.077
308.15 K, 101.33 kPa, x1 = 0.7944 | 8.555
308.15 K, 101.33 kPa, x1 = 0.8719 | 9.501
308.15 K, 101.33 kPa, x1 = 0.941 | 10.35
308.15 K, 101.33 kPa, x2 = 0.2029 | 8.051
308.15 K, 101.33 kPa, x2 = 0.3005 | 6.899
308.15 K, 101.33 kPa, x2 = 0.3986 | 5.846
308.15 K, 101.33 kPa, x2 = 0.5012 | 4.779
308.15 K, 101.33 kPa, x2 = 0.5999 | 3.798
308.15 K, 101.33 kPa, x2 = 0.6987 | 2.866
308.15 K, 101.33 kPa, x2 = 0.8008 | 1.998
308.15 K, 101.33 kPa, x2 = 0.8947 | 1.315
313.15 K, 101.3 kPa, x1 = 0.031 | 0.8
313.15 K, 101.3 kPa, x1 = 0.068 | 1.04
313.15 K, 101.3 kPa, x1 = 0.11 | 1.08
313.15 K, 101.3 kPa, x1 = 0.14 | 1.46
313.15 K, 101.3 kPa, x1 = 0.16 | 1.61
313.15 K, 101.3 kPa, x1 = 0.19 | 1.8
313.15 K, 101.3 kPa, x1 = 0.22 | 2.04
313.15 K, 101.3 kPa, x1 = 0.3 | 2.54
313.15 K, 101.3 kPa, x1 = 0.4 | 3.4
313.15 K, 101.3 kPa, x1 = 0.54 | 4.58
313.15 K, 101.3 kPa, x1 = 0.72 | 6.53
323.15 K, 101.3 kPa, x1 = 0.031 | 0.67
323.15 K, 101.3 kPa, x1 = 0.068 | 0.82
323.15 K, 101.3 kPa, x1 = 0.11 | 0.9
323.15 K, 101.3 kPa, x1 = 0.14 | 1.21
323.15 K, 101.3 kPa, x1 = 0.16 | 1.3
323.15 K, 101.3 kPa, x1 = 0.19 | 1.44
323.15 K, 101.3 kPa, x1 = 0.22 | 1.62
323.15 K, 101.3 kPa, x1 = 0.26 | 1.81
323.15 K, 101.3 kPa, x1 = 0.3 | 1.97
323.15 K, 101.3 kPa, x1 = 0.4 | 2.59
323.15 K, 101.3 kPa, x1 = 0.54 | 3.46
323.15 K, 101.3 kPa, x1 = 0.72 | 4.83
